The numbers were not newly measured in patent publication US11504321B2, “Process of coloring keratinous material comprising the use of an organosilicon compound, an effect pigment, a further coloring compound and a film-forming polymer II” (Henkel AG & Co. KGaA, priority 2019, dated 2022), which cites them from elsewhere.

For the series the following is noted: for solubility in water: 25° C.

Regarding `Nc1cc(S(=O)(=O)[O-])cc2cc(S(=O)(=O)[O-])c(N=Nc3ccccc3)c(O)c12.[Na+].[Na+]` [Acid Red 33, disodium salt of 5-amino-4-hydroxy-3-(phenylazo)-naphthalene-2,7-disulphonate], the solubility in water is 2500 µg/mL.

As to `O=C([O-])C1=NN(c2ccc(S(=O)(=O)[O-])cc2)C(=O)C1N=Nc1ccc(S(=O)(=O)[O-])cc1.[Na+].[Na+].[Na+]` (centres unmarked) [Acid Yellow 23, trisodium salt of 4,5-dihydro-5-oxo-1-(4-sulfophenyl)-4-((4-sulfophenyl)azo)-1H-pyrazole-3-carboxylic acid], the “solubility in water (in words)” value (at 25° C.) is on record as “highly soluble in water”.

Consider `CCN(Cc1cccc(S(=O)(=O)[O-])c1)c1ccc(C(=C2C=CC(=[N+](CC)Cc3cccc(S(=O)(=O)[O-])c3)C=C2)c2ccccc2S(=O)(=O)[O-])cc1.[Na+].[Na+]` [Acid Blue 9], for which the solubility in water entry is listed as “more than 20 % by weight”.

Regarding `O=C([O-])c1c(Cl)c(Cl)c(Cl)c(Cl)c1-c1c2c(Br)cc(=O)c(Br)c-2oc2c(Br)c(O)cc(Br)c12.O=C([O-])c1c(Cl)c(Cl)c(Cl)c(Cl)c1-c1c2c(Br)cc(=O)c(Br)c-2oc2c(Br)c(O)cc(Br)c12.[Na+].[Na+]` [Acid Red 92, disodium salt of 3,4,5,6-tetrachloro-2-(1,4,5,8-tetrabromo-6-hydroxy-3-oxoxanthen-9-yl)benzoic acid], the solubility in water result was “greater than 10 g/L”.

Regarding `O=S(=O)([O-])c1ccc(N=Nc2c(O)ccc3ccccc23)cc1.[Na+]` [Acid Orange 7, sodium salt of 4-[(2-hydroxy-1-naphthyl)azo]benzene sulphonate], the solubility in water entry is “more than 7 g/L”.
